Laboratory results from ChEMBL document CHEMBL4507318, “Data for DCP probe BAY-985” (2021).

Key:
[1] = target: Serine/threonine-protein kinase LATS1 (Homo sapiens) (UniProt O95835)
[2] = target: MAP kinase-interacting serine/threonine-protein kinase 2 (Homo sapiens) (UniProt Q9HBH9)
[3] = tested on: Epidermal growth factor receptor (Homo sapiens), P00533 [L861Q]
[4] = target: cAMP-dependent protein kinase catalytic subunit alpha (Homo sapiens) (UniProt P17612)
[5] = tested on: Epidermal growth factor receptor (Homo sapiens), P00533 [T790M]
[6] = target: Serine/threonine-protein kinase Sgk3 (Homo sapiens) (UniProt Q96BR1)
[7] = target: Serine/threonine-protein kinase PRP4 homolog (Homo sapiens) (UniProt Q13523)
[8] = tested on: Receptor-type tyrosine-protein kinase FLT3 (Homo sapiens), P36888 [UNDEFINED MUTATION]
[9] = target: Rho-associated protein kinase 2 (Homo sapiens) (UniProt O75116)
[10] = target: Receptor-type tyrosine-protein kinase FLT3 (Homo sapiens) (UniProt P36888)
[11] = target: Mitogen-activated protein kinase 12 (Homo sapiens) (UniProt P53778)
[12] = target: Serine/threonine-protein kinase 3 (Homo sapiens) (UniProt Q13188)
[13] = target: Hepatocyte growth factor receptor (Homo sapiens) (UniProt P08581)
[14] = target: Rho-associated protein kinase 1 (Homo sapiens) (UniProt Q13464)
[15] = target: Tyrosine-protein kinase TXK (Homo sapiens) (UniProt P42681)
[16] = target: Ephrin type-B receptor 3 (Homo sapiens) (UniProt P54753)
[17] = target: Casein kinase I isoform delta (Homo sapiens) (UniProt P48730)
[18] = target: Bone morphogenetic protein receptor type-2 (Homo sapiens) (UniProt Q13873)
[19] = target: Mitogen-activated protein kinase kinase kinase 10 (Homo sapiens) (UniProt Q02779)
[20] = target: Inhibitor of nuclear factor kappa-B kinase subunit alpha (Homo sapiens) (UniProt O15111)
[21] = target: Tyrosine-protein kinase FRK (Homo sapiens) (UniProt P42685)
[22] = target: 5-hydroxytryptamine receptor 5A (Homo sapiens) (UniProt P47898); conditions: Compound concentration 10.0 uM
[23] = target: Histamine H2 receptor (Homo sapiens) (UniProt P25021); conditions: Compound concentration 10.0 uM
[24] = target: Protein-tyrosine kinase 2-beta (Homo sapiens) (UniProt Q14289)
[25] = target: Serine/threonine-protein kinase DCLK2 (Homo sapiens) (UniProt Q8N568)
[26] = tested on: Epidermal growth factor receptor (Homo sapiens), P00533 [UNDEFINED MUTATION]
[27] = tested on: Mast/stem cell growth factor receptor Kit (Homo sapiens), P10721 [A829P]
[28] = target: Tyrosine-protein kinase ITK/TSK (Homo sapiens) (UniProt Q08881)
[29] = target: Calcium/calmodulin-dependent protein kinase type 1B (Homo sapiens) (UniProt Q6P2M8)
[30] = tested on: Serine/threonine-protein kinase B-raf (Homo sapiens), P15056 [V600E]
[31] = target: Ribosomal protein S6 kinase alpha-1 (Homo sapiens) (UniProt Q15418)
[32] = target: Serine/threonine-protein kinase 26 (Homo sapiens) (UniProt Q9P289)
[33] = target: Dual specificity tyrosine-phosphorylation-regulated kinase 1B (Homo sapiens) (UniProt Q9Y463)
[34] = target: Myosin-IIIa (Homo sapiens) (UniProt Q8NEV4)
[35] = target: Activated CDC42 kinase 1 (Homo sapiens) (UniProt Q07912)
[36] = target: Activin receptor type-1 (Homo sapiens) (UniProt Q04771)
[37] = target: Beta-2 adrenergic receptor (Homo sapiens) (UniProt P07550); conditions: Compound concentration 10.0 uM
[38] = target: Cyclin-G-associated kinase (Homo sapiens) (UniProt O14976)
[39] = target: Cyclin-dependent kinase 14 (Homo sapiens) (UniProt O94921)
[40] = target: cAMP-dependent protein kinase catalytic subunit beta (Homo sapiens) (UniProt P22694)
[41] = target: cGMP-dependent protein kinase 2 (Homo sapiens) (UniProt Q13237)
[42] = target: Ephrin type-A receptor 1 (Homo sapiens) (UniProt P21709)
[43] = target: Kappa-type opioid receptor (Homo sapiens) (UniProt P41145); conditions: Compound concentration 10.0 uM
[44] = target: 3-phosphoinositide-dependent protein kinase 1 (Homo sapiens) (UniProt O15530)
[45] = target: Calcium/calmodulin-dependent protein kinase type 1D (Homo sapiens) (UniProt Q8IU85)
[46] = Compound concentration 1000.0 nM
[47] = Compound concentration 100.0 nM

Histamine H2 receptor (Homo sapiens), sequence (P25021 whole entry): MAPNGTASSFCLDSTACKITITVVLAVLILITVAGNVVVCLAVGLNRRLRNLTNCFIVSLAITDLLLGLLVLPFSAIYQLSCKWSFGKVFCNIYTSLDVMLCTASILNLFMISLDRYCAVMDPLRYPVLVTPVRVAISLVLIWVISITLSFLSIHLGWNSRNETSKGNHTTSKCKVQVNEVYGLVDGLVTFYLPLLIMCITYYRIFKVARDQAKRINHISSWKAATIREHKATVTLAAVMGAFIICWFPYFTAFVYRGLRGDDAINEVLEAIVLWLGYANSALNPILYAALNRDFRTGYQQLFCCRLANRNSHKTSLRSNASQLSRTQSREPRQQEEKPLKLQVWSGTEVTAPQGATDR
Dual specificity tyrosine-phosphorylation-regulated kinase 1B (Homo sapiens), sequence (Q9Y463 whole entry, looked up): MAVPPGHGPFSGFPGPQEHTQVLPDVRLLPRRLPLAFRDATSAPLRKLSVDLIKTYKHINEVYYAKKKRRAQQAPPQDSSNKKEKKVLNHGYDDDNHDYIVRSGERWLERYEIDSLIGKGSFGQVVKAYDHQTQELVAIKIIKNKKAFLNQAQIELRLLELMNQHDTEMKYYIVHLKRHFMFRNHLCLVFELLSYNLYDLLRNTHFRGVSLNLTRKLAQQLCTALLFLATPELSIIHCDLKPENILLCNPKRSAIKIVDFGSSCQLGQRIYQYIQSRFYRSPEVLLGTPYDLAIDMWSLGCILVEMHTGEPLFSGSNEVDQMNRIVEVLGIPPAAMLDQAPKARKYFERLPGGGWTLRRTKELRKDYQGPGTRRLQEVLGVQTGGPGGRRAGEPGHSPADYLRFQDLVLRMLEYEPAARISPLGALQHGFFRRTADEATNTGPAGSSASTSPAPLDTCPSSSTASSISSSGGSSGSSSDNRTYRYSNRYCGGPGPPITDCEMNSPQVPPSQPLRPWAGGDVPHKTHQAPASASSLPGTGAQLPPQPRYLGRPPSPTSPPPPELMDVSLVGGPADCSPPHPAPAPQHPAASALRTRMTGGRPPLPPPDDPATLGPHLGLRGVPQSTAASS
MAP kinase-interacting serine/threonine-protein kinase 2 (Homo sapiens), sequence (Q9HBH9 whole entry, looked up): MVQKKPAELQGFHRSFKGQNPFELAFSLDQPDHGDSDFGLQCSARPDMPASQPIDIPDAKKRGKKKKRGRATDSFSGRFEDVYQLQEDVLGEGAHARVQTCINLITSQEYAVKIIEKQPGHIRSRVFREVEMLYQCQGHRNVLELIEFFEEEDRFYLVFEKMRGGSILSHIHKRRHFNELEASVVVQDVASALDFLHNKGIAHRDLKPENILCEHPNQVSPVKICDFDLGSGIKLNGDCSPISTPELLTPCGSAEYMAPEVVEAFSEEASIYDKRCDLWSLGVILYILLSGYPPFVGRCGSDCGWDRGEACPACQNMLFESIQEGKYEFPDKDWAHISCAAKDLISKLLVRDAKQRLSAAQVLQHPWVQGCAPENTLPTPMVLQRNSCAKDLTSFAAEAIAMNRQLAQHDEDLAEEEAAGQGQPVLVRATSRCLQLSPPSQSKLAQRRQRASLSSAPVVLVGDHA
Serine/threonine-protein kinase DCLK2 (Homo sapiens), sequence (Q8N568 whole entry): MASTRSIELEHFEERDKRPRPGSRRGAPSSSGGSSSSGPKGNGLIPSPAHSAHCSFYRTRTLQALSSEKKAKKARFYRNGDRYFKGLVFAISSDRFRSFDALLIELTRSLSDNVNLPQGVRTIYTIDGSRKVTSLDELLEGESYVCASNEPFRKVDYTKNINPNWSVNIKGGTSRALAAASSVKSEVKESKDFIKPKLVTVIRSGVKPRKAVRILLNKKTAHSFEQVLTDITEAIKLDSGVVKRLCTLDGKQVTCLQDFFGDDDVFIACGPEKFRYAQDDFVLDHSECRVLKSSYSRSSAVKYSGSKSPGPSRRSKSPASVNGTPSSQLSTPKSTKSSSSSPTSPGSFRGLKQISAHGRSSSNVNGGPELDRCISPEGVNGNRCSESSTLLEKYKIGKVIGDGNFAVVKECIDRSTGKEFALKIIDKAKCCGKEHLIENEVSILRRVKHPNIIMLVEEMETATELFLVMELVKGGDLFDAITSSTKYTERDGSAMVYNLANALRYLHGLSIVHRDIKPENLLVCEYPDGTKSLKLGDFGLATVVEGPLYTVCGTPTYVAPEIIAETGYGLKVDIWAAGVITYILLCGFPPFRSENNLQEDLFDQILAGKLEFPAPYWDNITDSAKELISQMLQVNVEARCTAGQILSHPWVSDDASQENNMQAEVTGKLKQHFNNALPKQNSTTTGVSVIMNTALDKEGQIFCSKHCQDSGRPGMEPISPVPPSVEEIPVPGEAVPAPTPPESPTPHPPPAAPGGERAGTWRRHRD
Beta-2 adrenergic receptor (Homo sapiens), sequence (P07550 whole entry, looked up): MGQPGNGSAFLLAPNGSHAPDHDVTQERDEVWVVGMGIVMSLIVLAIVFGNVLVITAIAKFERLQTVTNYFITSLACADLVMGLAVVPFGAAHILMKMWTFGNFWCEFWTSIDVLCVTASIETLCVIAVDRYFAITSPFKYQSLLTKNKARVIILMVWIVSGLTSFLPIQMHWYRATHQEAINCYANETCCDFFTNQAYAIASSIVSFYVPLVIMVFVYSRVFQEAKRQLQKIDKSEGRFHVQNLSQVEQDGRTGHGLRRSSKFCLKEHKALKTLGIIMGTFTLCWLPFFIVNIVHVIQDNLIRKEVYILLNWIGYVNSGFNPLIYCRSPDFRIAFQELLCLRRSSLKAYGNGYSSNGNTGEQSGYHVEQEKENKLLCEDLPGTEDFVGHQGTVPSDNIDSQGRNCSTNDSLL
Activin receptor type-1 (Homo sapiens), sequence (Q04771 whole entry): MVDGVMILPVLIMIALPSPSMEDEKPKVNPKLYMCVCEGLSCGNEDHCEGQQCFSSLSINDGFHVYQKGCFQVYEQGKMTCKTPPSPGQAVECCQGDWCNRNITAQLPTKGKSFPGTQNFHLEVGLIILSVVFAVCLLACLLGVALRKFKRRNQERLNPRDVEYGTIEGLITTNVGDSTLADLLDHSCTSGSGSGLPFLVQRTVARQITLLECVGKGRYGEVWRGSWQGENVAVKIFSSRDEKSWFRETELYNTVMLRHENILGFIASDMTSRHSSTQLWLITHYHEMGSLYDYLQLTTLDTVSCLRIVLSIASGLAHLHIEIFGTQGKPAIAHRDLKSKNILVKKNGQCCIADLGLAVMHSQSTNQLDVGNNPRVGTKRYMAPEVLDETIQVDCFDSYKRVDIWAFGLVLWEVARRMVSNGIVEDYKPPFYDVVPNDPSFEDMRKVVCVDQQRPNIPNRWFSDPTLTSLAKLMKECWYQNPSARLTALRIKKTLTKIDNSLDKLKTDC
cGMP-dependent protein kinase 2 (Homo sapiens), sequence (Q13237 whole entry): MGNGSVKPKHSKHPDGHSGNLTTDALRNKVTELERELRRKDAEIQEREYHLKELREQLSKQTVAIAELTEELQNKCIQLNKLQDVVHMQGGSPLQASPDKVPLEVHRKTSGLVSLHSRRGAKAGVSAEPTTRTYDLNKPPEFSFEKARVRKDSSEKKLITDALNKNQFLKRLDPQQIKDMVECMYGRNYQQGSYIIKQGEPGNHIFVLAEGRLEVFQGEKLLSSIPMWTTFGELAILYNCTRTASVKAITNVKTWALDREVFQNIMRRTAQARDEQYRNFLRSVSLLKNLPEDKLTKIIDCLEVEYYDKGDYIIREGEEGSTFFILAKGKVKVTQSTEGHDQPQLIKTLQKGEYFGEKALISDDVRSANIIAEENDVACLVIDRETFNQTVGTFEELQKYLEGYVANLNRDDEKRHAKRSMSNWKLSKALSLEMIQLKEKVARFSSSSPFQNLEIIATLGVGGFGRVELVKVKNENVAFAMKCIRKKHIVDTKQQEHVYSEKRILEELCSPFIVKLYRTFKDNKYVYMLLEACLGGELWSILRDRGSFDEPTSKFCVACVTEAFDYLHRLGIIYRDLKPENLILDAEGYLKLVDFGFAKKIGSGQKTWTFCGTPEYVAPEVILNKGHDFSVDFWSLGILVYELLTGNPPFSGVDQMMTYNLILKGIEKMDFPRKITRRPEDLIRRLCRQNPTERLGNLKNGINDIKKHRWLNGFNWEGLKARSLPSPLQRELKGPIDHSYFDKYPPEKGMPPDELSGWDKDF
Mast/stem cell growth factor receptor Kit (Homo sapiens), P10721 [A829P], sequence (P10721 whole entry A829P): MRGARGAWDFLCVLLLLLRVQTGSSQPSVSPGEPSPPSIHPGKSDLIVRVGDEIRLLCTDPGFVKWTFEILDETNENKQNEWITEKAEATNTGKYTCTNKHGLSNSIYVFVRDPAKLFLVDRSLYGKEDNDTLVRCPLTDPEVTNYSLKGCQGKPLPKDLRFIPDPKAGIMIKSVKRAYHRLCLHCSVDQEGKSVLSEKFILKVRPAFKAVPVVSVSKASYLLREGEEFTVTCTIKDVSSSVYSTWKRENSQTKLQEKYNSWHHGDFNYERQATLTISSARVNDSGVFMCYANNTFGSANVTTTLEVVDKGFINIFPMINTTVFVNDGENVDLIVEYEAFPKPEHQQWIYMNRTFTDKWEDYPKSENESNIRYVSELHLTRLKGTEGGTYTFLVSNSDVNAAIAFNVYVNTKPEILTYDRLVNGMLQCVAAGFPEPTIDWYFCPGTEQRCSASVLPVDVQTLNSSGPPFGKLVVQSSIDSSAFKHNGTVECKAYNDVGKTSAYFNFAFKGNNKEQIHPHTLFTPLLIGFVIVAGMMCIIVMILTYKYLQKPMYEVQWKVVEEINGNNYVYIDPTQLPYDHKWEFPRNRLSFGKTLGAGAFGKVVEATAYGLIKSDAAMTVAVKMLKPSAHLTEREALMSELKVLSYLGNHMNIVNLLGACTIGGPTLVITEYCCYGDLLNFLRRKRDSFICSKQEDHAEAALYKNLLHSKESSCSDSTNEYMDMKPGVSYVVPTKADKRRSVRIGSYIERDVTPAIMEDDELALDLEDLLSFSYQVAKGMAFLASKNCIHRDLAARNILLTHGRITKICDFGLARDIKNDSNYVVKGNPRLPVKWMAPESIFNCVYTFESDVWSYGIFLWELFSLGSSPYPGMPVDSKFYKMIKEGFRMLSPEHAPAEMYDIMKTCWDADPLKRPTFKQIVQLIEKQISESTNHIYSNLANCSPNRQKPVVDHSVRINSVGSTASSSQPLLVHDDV

With CN(C)c1ncnc(-c2ccc3nc(Nc4cc(CN5CCN(C(=O)CC(F)(F)F)CC5)ccn4)[nH]c3c2)c1Cl [BAY-440] the residual activity [1, 46] was 95%, the residual activity [2, 46] was 37% and the residual activity [3, 46] was 96%. For the same molecule, the residual activity [4, 46] was 100%, the residual activity [5, 46] was 100% and the residual activity [6, 46] was 72%. The residual activity [7, 46] was 100%, the residual activity [8, 46] was 86% and the residual activity [9, 46] was 91%. For the same molecule, the residual activity [10, 46] was 71%, the residual activity [11, 46] was 68% and the residual activity [12, 46] was 100%. For the same molecule, the residual activity [13, 46] was 69%, the residual activity [14, 46] was 100% and the residual activity [15, 46] was 95%. It also gave a residual activity [16, 46] of 100%, a residual activity [17, 46] of 83% and a residual activity [18, 46] of 61%. The residual activity [19, 46] was 100%, the residual activity [20, 46] was 69% and the residual activity [21, 46] was 85%. For the same molecule, the inhibition [22] was 23.6%, the inhibition [23] was 32.6% and the residual activity [24, 46] was 85%. For the same molecule, the residual activity [25, 46] was 100%, the residual activity [26, 46] was 100% and the residual activity [27, 46] was 53%. It also gave a residual activity [28, 46] of 100%, a residual activity [29, 46] of 72% and a residual activity [30, 46] of 84%. It also gave a residual activity [31, 46] of 100%, a residual activity [32, 46] of 91% and a residual activity [33, 46] of 100%. For the same molecule, the residual activity [34, 46] was 100%, the residual activity [35, 46] was 96% and the residual activity [36, 46] was 88%. The inhibition [37] was 12.6%, the residual activity [38, 46] was 82% and the residual activity [39, 46] was 100%. It also gave a residual activity [40, 46] of 76%, a residual activity [41, 46] of 40% and a residual activity [42, 46] of 100%. For the same molecule, the inhibition [43] was 33.7%, the residual activity [44, 46] was 100% and the residual activity [45, 46] was 100%.
Work on C[C@H](c1ccnc(Nc2nc3ccc(-c4cc(N(C)C)ncn4)cc3[nH]2)c1)N1CCN(C(=O)CC(F)(F)F)CC1 [BAY-985] yielded a residual activity [1, 47] of 100%, a residual activity [2, 47] of 86% and a residual activity [3, 47] of 76%. For the same molecule, the residual activity [4, 47] was 100%, the residual activity [5, 47] was 100% and the residual activity [6, 47] was 100%. The residual activity [7, 47] was 80%, the residual activity [8, 47] was 100% and the residual activity [9, 47] was 100%. It also gave a residual activity [10, 47] of 67%, a residual activity [11, 47] of 95% and a residual activity [12, 47] of 93%. For the same molecule, the residual activity [13, 47] was 100%, the residual activity [14, 47] was 100% and the residual activity [15, 47] was 96%. For the same molecule, the residual activity [16, 47] was 93%, the residual activity [17, 47] was 89% and the residual activity [18, 47] was 100%. It also gave a residual activity [19, 47] of 100%, a residual activity [20, 47] of 95% and a residual activity [21, 47] of 92%. The inhibition [22] was 11.9%, the inhibition [23] was 3.55% and the residual activity [24, 47] was 91%. It also gave a residual activity [25, 47] of 85%, a residual activity [26, 47] of 96% and a residual activity [27, 47] of 83%. It also gave a residual activity [28, 47] of 100%, a residual activity [29, 47] of 100% and a residual activity [30, 47] of 100%. It also gave a residual activity [31, 47] of 100%, a residual activity [32, 47] of 100% and a residual activity [33, 47] of 84%. For the same molecule, the residual activity [34, 47] was 100%, the residual activity [35, 47] was 100% and the residual activity [36, 47] was 100%. The inhibition [37] was 33.3%, the residual activity [38, 47] was 95% and the residual activity [39, 47] was 100%. For the same molecule, the residual activity [40, 47] was 100%, the residual activity [41, 47] was 94% and the residual activity [42, 47] was 99%. For the same molecule, the inhibition [43] was 4.24%, the residual activity [44, 47] was 76% and the residual activity [45, 47] was 95%.
